Experimental data as given in US10835516B2, “Protective, anti-inflammatory receptor and its use in preservation of mitochondrial function, wound healing and repair” (The Johns Hopkins University, priority 2011, dated 2020).
Substitutions are numbered along the chain they refer to.

Legend:
mtAT2R [1] = molecular target: T1, mtAT2R (Rattus norvegicus, UniProt P35351); experiment: Mitochondrial respiration, isolated rat heart mitochondria (Seahorse XF96); type: biochemical
T1 construct: we examined effects on respiration in rat heart mitochondria; from tissue; host or cells: isolated rat heart or liver mitochondria
T1 sequence (P35351 1-363): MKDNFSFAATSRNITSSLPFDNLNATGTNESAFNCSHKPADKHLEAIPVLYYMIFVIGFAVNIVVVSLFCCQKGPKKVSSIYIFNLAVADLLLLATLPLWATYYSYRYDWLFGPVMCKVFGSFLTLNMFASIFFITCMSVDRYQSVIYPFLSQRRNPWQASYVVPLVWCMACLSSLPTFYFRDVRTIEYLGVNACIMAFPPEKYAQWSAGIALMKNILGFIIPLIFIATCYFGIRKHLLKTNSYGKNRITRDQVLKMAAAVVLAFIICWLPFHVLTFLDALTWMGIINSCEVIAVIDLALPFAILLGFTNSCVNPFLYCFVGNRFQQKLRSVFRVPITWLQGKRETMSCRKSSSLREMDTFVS
Procedure: Mitochondrial Respiration. For monitoring respiration, isolated mitochondria from rat heart or liver (10 μg of protein per well) were aliquoted into 96 wells of a polyethyleneimine-coated XF96 cell culture microplate (Seahorse Bioscience). The plate was centrifuged at 3,000×g for 10 minutes at 4° C. in an A-4-62 rotor, which control experiments determined caused an attachment of isolated mitochondria that was sufficiently robust to withstand the mixing protocols of the machine. Mitochondria were placed in 300 μL per well of mitochondrial buffer [20 mM Hepes, 137 mM KCl, 2.5 mM MgCl2, 2 mM K2HPO4, 0.5 mM EGTA, and 0.2% (wt/vol) BSA (pH 7.3) at 37° C.]J. Plates were used immediately. The cell culture microplate was incubated and loaded into the Seahorse XF96 extracellular flux analyzer following the manufacturer's instructions. All experiments were performed at 37° C.
Oxygen consumption rate data points refer to the mean rates during the measurement cycles, which consisted of a mixing time of 30 s and a wait time of 2 minutes followed by a data acquisition period of 10 minutes (50 data points). […] The oxygen consumption rates were determined by using a compartment model-based deconvolution algorithm, which compensated for oxygen diffusion phenomena occurring around the entrapped volume and for the response time of the probe. […]

mtAT2R [2] = molecular target: T2, mtAT2R (Mus musculus, UniProt P35374); experiment: NO production in isolated kidney mitochondria (NO fluorescent probe); type: biochemical; conditions: PD-123319 1 μM; P<0.01
T2 construct: from tissue; host or cells: isolated kidney mitochondria
T2 sequence (P35374 1-363): T1 sequence (P35351 1-363) with L18R, A40S, V88L, S352G
Procedure: Measurement of Nitric Oxide (NO) Production in Isolated Mitochondria. Kidney mitochondria were isolated by homogenization and differential centrifugation in a medium containing […] of 1 M sucrose, 12 mL of 1 M mannitol, 2.5 mL of 1 M KCL, 1 M Tris-HCL, 0.5 mL of 1 M EDTA, 1.5 mL of 0.1 M EGTA, and 0.1% BSA (pH 7.4). Mitochondria were suspended in incubation solution. Total mitochondrial protein was determined by a Lowry Protein Assay Kit (Sigma-Aldrich). […] The fluorescent products were measured by using a reader equipped with Cyanine 5 (650/670 nm).
AT2Rs Modulate Mitochondrial NO Production. To determine whether mtAT2R activation might modulate mitochondrial NO production in a manner analogous to the actions of non-mtAT2Rs on other NO isoforms, the direct effects of AT2R agonists and antagonists were determined on isolated kidney mitochondria. […] Fluorescence signal was measured by using a multimode microplate reader equipped with Cyanine 5 (650/670 nm). Treatment of mitochondria with CGP421140 caused a concentration-dependent increase in mitochondrial NO production (FIG. 6A); specifically, 10 nM was sufficient to stimulate NO production [from 0.52±0.0009 fluorescence arbitrary units (AU) at baseline control to 0.6+0.01 AU, P<0.001]. […]

mtAT2R [3] = experiment: Immunoelectron microscopy of mtAT2R in kidney tubular cells of aged mice on chronic losartan; type: in vivo, C57BL/6 mice; conditions: 70-wk-old mice, losartan 40-60 mg/kg per day for 20 wk; aged untreated 10.2+2.2, young 25.5+6.2
Procedure: (§1) Immunolocalization of AT1R, AT2R, and Ang. Immunogold electron microscopy was performed as described (Am. J. Physiol. Endocrinot. Metab., 286:E1011-E1022 (2004)). In brief, mouse tissues were fixed in 4% formaldehyde in 0.1 M sodium cacodylate supplemented with 3% sucrose (wt/vol) and 3 mM CaCl2 and cryoprotected in 2.3 M sucrose overnight in polyvinylpyrrolidone (Sigma). Ultrathin sections were cut on a Leica Ultracut UCT microtome, and sections were placed on Formvar-coated nickel 200-mesh hexagonal grids. The sections were incubated in primary antibody against rabbit anti-AT2R, goat anti-Ang, or goat anti-AT1R antibody overnight at 4° C. at a concentration of 10 μg/mL. […] Primary antibodies were detected with either 6-nm colloidal gold donkey anti-goat or 12-nm colloidal goat anti-rabbit (Jackson ImmunoResearch) diluted 1:20 in PBS for 1 hour. Final contrasting of the sections was done by incubating them in 2% methyl cellulose (Sigma) and 0.3% uranyl acetate (Ted Pella) for 10 min at 4° C. All sections were viewed with a Philips CM 120 TEM transmission electron microscope at an accelerating voltage of 80 kV. Images were taken with a Gatan Orius SC 1000 digital camera. Photographs for representative sections were taken.

mtAT1R = experiment: Immunoelectron microscopy of mtAT1R in kidney tubular cells of aged mice on chronic losartan; type: in vivo, C57BL/6 mice; conditions: 70-wk-old mice, losartan 40-60 mg/kg per day for 20 wk; aged untreated 12.7+5.8, young 2.0+2.2
Procedure: as §1

8-mm excisional wounds = experiment: Full thickness excisional wound healing, daily topical cream; type: in vivo, mice; conditions: after three days of treatment, FIG. 8
Procedure: For wound-healing experiments, animal procedures were approved by the Johns Hopkins University Animal Care and Use Committee. During the experiments the animals were-housed one per cage, maintained under controlled environmental conditions (12 hours light to dark cycle, temperature approximately 23° C.), and provided with standard laboratory food and water ad libitum. 16 male mice with average weight of 30 g were divided into two groups. Mice were anesthetized with ketamine hydrochloride (100 mg/kg) and xylazine (10 mg/kg), and the dorsum was shaved and then treated with a depilatory (Nair cream, Church & Dwight Co., Princeton, N.J.). Two symmetrical full thickness excisional wounds created on their back using an 8-mm punch biopsy instrument. No dressing was used after burn. The animals were resuscitated according to the Parkland formula (4 mL/kg/percent body area) by intraperitoneal injection of saline within 1 hour after wound. Animals were divided into two groups; A and B. One group received daily application of an angiotensin receptor blocker cream to both wounds per animal and the other received vehicle. Researchers were blinded to the identity of the cream applied. We used digital photography and computerized planimetry to assess the rate of wound healing in either group.

wounds = experiment: Wound healing in db/db mice, losartan started at different phases; type: in vivo, BKS.Cg-m+/+Lepr^db/J(db/db) mice; conditions: 8 week old db/db mice; preliminary data
Source text: In order to provide additional rationale for using losartan ointment at day 7 of wound treatment, preliminary data was developed on the effects of losartan on all phases of wound healing in 8 week old BKS.Cg-m+/+Lepr^db/J(db/db) mice (FIGS. 11, 12).

[4] = Blood pressure and general health of mice on chronic losartan
Procedure: Human and Animal Groups. Mitochondria were studied in adult human monocytes (20-30 y old), adult human skeletal muscle tissue, adult rats (24 wk old), adult (20 wk old) and aged (70 wk old) mice, and a human cell line. Adult mice at 50 wk of age were treated with the AT1R blocker losartan at doses of 40-60 mg/kg per day for 20 wk. All experiments were approved by the Johns Hopkins Animal Care and use Committee and the Johns Hopkins Institutional Review Board. Weight, blood urea nitrogen, creatinine, and albumin were measured in adult (20 wk) and aged (70 wk) mice and in aged mice on losartan treatment. […] We visually inspected each animal carcass after the dissection for any abnormalities.

COC(=O)[C@@H](N)CCCNC(=N)N[N+](=O)[O-] [L-NAME, L-N^G-nitroarginine methyl ester]
CGP421140-inhibited state 3 respiration reversed by L-NAME (mtAT2R [1]; 100 nM CGP421140 + L-NAME 1 μM, P<0.05): 67.4±4.3 pmol/min per μg

Cc1cc(Cn2cnc3c2C[C@@H](C(=O)O)N(C(=O)C(c2ccccc2)c2ccccc2)C3)ccc1N(C)C [PD-123319]
CGP421140-stimulated NO production after pretreatment with PD-123319 (mtAT2R [2]): 0.55±0.006 AU
CGP421140-inhibited state 3 respiration restored by PD-123319 (mtAT2R [1]; 100 nM CGP421140 + PD-123319 1 μM, P<0.01): 66.83±2.1 pmol/min per μg

CCCCc1nc(Cl)c(CO)n1Cc1ccc(-c2ccccc2-c2nn[nH]n2)cc1 [losartan]
mtAT2R expression (mtAT2R [3]): 39.0+2.6 gold-labeled AT2R per mitochondrion
mtAT1R expression (mtAT1R): 11.0+2.1 gold-labeled AT1R per mitochondrion
wound granulation versus vehicle (8-mm excisional wounds): more granulation
healing and elasticity, treatment starting at day 7 compared to day 1 (wounds): accelerated healing and improved elasticity
evidence of malignancy on carcass inspection ([4]; 10 animals per group): did not observe any evidence of malignancy
weight, blood urea nitrogen, creatinine, and albumin ([4]; adult, aged and aged mice on losartan, data not shown): no significant difference
decrease in blood pressure ([4]; losartan 40-60 mg/kg per day for 20 wk): 10-15%
